Article PMC10938303 (Bioorganic & medicinal chemistry letters, 2022)

Tests used:
In vitro clearance, rat = format: in vitro ADME
[1] = In vitro clearance, human; format: in vitro ADME
hM5 = molecular target: T1, hM5 (Homo sapiens, UniProt P08912); experiment: Calcium mobilization assay with hM5-CHO cells, EC80 acetylcholine; format: cell-based; settings: for hM5 IC50: hM5-CHO cells, EC80 acetylcholine, one experiment in triplicate
T1 sequence (P08912 1-532): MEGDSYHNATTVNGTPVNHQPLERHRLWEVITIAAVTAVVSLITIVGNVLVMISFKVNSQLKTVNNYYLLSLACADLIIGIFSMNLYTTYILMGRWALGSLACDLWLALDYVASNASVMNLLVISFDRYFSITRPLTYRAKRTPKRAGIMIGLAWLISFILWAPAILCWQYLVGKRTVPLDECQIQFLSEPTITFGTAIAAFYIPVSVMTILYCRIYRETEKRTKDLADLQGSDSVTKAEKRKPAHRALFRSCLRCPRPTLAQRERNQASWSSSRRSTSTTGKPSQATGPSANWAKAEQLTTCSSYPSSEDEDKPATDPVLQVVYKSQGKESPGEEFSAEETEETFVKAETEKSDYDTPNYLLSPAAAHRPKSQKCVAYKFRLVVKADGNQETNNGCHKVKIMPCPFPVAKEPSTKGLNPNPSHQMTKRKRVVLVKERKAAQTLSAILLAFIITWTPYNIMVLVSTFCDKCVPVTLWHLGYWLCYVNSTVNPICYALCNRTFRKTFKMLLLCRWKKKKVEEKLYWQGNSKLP

| SMILES | Predicted CLhep (r) (In vitro clearance, rat) [mL/min/kg] | Predicted CLhep (h) [1] [mL/min/kg] | fold more potent than (S)-12a (12c) (hM5 IC50) (hM5; versus 12c) [fold] | hM5 IC50 (hM5) |
| --- | --- | --- | --- | --- |
| O=C(Nc1ccc2scnc2c1)C1CCN(S(=O)(=O)c2ccc3c(c2)CCO3)C1 (centres unmarked) [12a] | 55 | 16 |  |  |
| O=C(Nc1ccc2scnc2c1)C1CN(S(=O)(=O)c2ccc3c(c2)CCO3)C1 [12b] | 57 | 16 |  |  |
| O=C(Nc1ccc2scnc2c1)[C@H]1CCN(S(=O)(=O)c2ccc3c(c2)CCO3)C1 [12c] | 52 | 16 |  |  |
| O=C(Nc1ccc2scnc2c1)[C@@H]1CCN(S(=O)(=O)c2ccc3c(c2)CCO3)C1 [12d] | 59 | 15 | 21 |  |
| C[C@@H]1CN(S(=O)(=O)c2ccc3c(c2)CCO3)C[C@@H]1C(=O)Nc1ccc2scnc2c1 [12e] | 64 | 19 |  |  |
| C[C@H]1CN(S(=O)(=O)c2ccc3c(c2)CCO3)C[C@@H]1C(=O)Nc1ccc2scnc2c1 [12f] | 29 | 4 |  |  |
| O=C(Nc1ccc2scnc2c1)[C@H]1CN(S(=O)(=O)c2ccc3c(c2)CCO3)C[C@@H]1C(F)(F)F [12g] |  |  |  | inactive |
| O=C(Nc1ccc2scnc2c1)C12CC1CN(S(=O)(=O)c1ccc3c(c1)CCO3)C2 (centres unmarked) [12h] | 60 | 18 |  |  |
| Cc1nn(C)cc1S(=O)(=O)N1CC[C@@H](C(=O)Nc2ccc3scnc3c2)C1 [17a] |  |  |  | inactive |
| Cn1cc(S(=O)(=O)N2CC[C@@H](C(=O)Nc3ccc4scnc4c3)C2)c(C(F)(F)F)n1 [17b] |  |  |  | inactive |
| O=C(Nc1ccc2scnc2c1)[C@@H]1CCN(S(=O)(=O)c2cccnc2)C1 [17c] |  |  |  | inactive |
| O=C(Nc1ccc2scnc2c1)[C@@H]1CCN(S(=O)(=O)c2ccc(Cl)nc2)C1 [17d] |  |  |  | inactive |
| [2H]C1([2H])Oc2ccc(S(=O)(=O)N3CC[C@@H](C(=O)Nc4ccc5scnc5c4)C3)cc2C1([2H])[2H] [17f] | 49 | 15 |  |  |
| O=C(Nc1ccc2scnc2c1)[C@@H]1CCN(S(=O)(=O)c2ccc3c(c2)OCO3)C1 [17g] | 55 | 12 |  |  |
| O=C(Nc1ccc2scnc2c1)[C@@H]1CCN(S(=O)(=O)c2ccc3c(c2)CCC3)C1 [17h] |  |  |  | significantly less active |
| O=C(Nc1ccc2scnc2c1)[C@@H]1CCN(S(=O)(=O)c2ccc3ncccc3c2)C1 [17i] | 51 | 14 |  |  |
| O=C(Nc1ccc2scnc2c1)[C@@H]1CCN(S(=O)(=O)c2ccc3ncsc3c2)C1 [17j] | 29 | 13 |  |  |
